This note sets out measurements from patent publication US20040006236A1, “Diaminopropionic acid derivatives” (priority 1999, published 2004).

Assay [1] has as its target T1, ICAM-1 binding to immobilized Mac-1 (Homo sapiens, UniProt P05107+P11215).
T1 construct: made in house; host or cells: transfected 293 cells (Mac-1)
Nature of the assay: Mac-1/ICAM-1 screening assay (solid-phase ELISA). The conditions noted are these: read-out: Mac-1/ICAM-1 Protein-Protein Assay IC50. The method, boiled down:
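Competitive solid-phase ELISA: membrane Mac-1 from transfected 293 cells coated at 3 μg/mL in 20 mM Hepes pH 7.2/0.14 M NaCl/1 mM MnCl2; compounds (0.12 nM-20 μM, 1:4 series) plus 5dICAM-Ig (40 μg/mL, added) 2 h at 37° C. Bound ICAM-Ig detected with HRP anti-human IgG Fc, TMB, A450; IC50 reported.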
A general note: In an ELISA, binding on a coated surface is turned into a signal by an enzyme label.

Assay [2] has as its system T lymphocyte proliferation (C57BI/6 spleen cells with irradiated BALB/c spleen cells). Nature of the assay: Mixed lymphocyte reaction (MLR), one-way. The format is cell-based, mice. The note with it: Mus musculus, T-lymphocyte; read-out: MLR IC50. The method, boiled down:
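One-way murine MLR: C57BI/6 responder splenocytes proliferate against irradiated BALB/c stimulators while exposed to serially diluted antagonists in supplemented RPMI1640 for 3 days. Proliferation read as [3H]-thymidine uptake over a final 6 h pulse (0.5 μCi/well), scintillation counted.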

In assay [3] the test system is cell-surface Mac-1 adhesion to immobilized fibrinogen (HL-60 cells). The assay is described as follows: Mac-1/Fibrinogen cell-based screening assay. The conditions noted are these: Homo sapiens, HL-60, HL-60 cells; read-out: Mac-1/Fgn Cell based Assay IC50. Also on record: species or system human. Summed up: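 Wells coated with fibrinogen and blocked with PVP. Labeled HL-60 cells (2×10^6 cells/mL in RPMI/0.05% BSA/0.2 mM MnCl2) preincubated with DMSO-diluted compounds for 10 min at 37° C, then left to adhere 30 min at 37° C/5% CO2. Unbound cells washed off with TBS.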

T1 sequence (P05107 23-769, other chains not shown): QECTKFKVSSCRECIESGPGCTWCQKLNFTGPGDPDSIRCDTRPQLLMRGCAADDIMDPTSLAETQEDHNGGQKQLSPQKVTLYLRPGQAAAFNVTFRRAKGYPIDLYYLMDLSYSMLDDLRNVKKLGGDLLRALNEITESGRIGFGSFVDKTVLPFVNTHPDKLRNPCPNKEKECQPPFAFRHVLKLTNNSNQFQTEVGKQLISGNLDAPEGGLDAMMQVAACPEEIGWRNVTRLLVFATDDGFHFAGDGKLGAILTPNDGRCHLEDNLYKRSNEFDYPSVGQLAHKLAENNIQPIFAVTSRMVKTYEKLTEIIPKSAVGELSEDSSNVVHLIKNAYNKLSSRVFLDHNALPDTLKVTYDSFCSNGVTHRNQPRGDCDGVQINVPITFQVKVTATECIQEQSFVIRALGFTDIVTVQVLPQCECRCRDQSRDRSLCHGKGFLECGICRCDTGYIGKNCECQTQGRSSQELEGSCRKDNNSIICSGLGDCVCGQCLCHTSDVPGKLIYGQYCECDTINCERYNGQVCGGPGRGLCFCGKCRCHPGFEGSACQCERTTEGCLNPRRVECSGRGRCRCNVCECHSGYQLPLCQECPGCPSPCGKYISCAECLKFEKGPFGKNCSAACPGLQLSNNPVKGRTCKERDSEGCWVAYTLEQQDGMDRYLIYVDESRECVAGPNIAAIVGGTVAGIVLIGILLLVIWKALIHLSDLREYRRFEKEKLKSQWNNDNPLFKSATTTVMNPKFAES

For the compound `Cc1cccc(C(=O)NC[C@H](NC(=O)c2ccc(C(=O)NCc3cccc(O)c3)cc2Cl)C(=O)O)c1` [Example 138], the figures for the IC50 in assay [1], in assay [2] and in assay [3] were 10 nM, 205 nM and 17 nM, respectively.
Consider `Cc1ccccc1C(=O)NC[C@H](NC(=O)c1ccc(C(=O)NCc2cccc(O)c2)cc1Cl)C(=O)O` [Example 137], for which the IC50 in assay [1] amounted to 22 nM; in assay [2] it was 325 nM; in assay [3], 84 nM.
For `O=C(NCc1cccc(O)c1)c1ccc(C(=O)N[C@@H](CNC(=O)C2CCCCC2)C(=O)O)c(Cl)c1` [Example 104], in that order: 25 nM, 775 nM and 82 nM.
In the same order, the values of `O=C(NCc1cccc(O)c1)c1ccc(C(=O)N[C@@H](CNC(=O)c2cccc(F)c2)C(=O)O)c(Cl)c1` [Example 131] are 9.7 nM, 215 nM and 12 nM.
For `O=C(NCc1cccc(O)c1)c1ccc(C(=O)N[C@@H](CNC(=O)c2sccc2Br)C(=O)O)c(Cl)c1` [Example 154], in that order: 11 nM, 365 nM and 58 nM.
Regarding `CN(C)c1cccc(C(=O)NC[C@H](NC(=O)c2ccc(C(=O)NCc3cccc(O)c3)cc2Cl)C(=O)O)c1` [Example 127], the values for the IC50 in assay [1], in assay [2] and in assay [3] were 23 nM, 455 nM and 71 nM, respectively.
Regarding `O=C(NCc1cccc(O)c1)c1ccc(C(=O)N[C@@H](CNC(=O)c2cc(Br)c(Br)s2)C(=O)O)c(Cl)c1` [Example 158], the values for the IC50 in assay [1], in assay [2] and in assay [3] were 20 nM, 7600 nM and 70 nM, respectively.
For `Cc1ccc(C(=O)NC[C@H](NC(=O)c2ccc(C(=O)NCc3cccc(O)c3)cc2Cl)C(=O)O)s1` [Example 160], in that order: 6.6 nM, 220 nM and 11 nM.
In the same order, the values of `O=C(NCc1cccc(O)c1)c1ccc(C(=O)N[C@@H](CNC(=O)c2ccc(Br)s2)C(=O)O)c(Cl)c1` [Example 155] are 13 nM, 750 nM and 51 nM.
For `O=C(NCc1cccc(O)c1)c1ccc(C(=O)N[C@@H](CNC(=O)c2cccc(Cl)c2)C(=O)O)c(Cl)c1` [Example 123], in that order: 6.9 nM, 300 nM and 20 nM.
For `O=C(NCc1cccc(O)c1)c1ccc(C(=O)N[C@@H](CNC(=O)c2ccc([N+](=O)[O-])cc2)C(=O)O)c(Cl)c1` [Example 142], the IC50 in assay [1] stood at 13 nM; in assay [2], 500 nM; in assay [3], 275 nM.
`O=C(NCc1cccc(O)c1)c1ccc(C(=O)N[C@@H](CNC(=O)c2cccc(I)c2)C(=O)O)c(Cl)c1` [Example 133]: the figures for the IC50 in assay [1], in assay [2] and in assay [3] were 10 nM, 625 nM and 32 nM, respectively.
Regarding `COC(=O)c1cccc(C(=O)NC[C@H](NC(=O)c2ccc(C(=O)NCc3cccc(O)c3)cc2Cl)C(=O)O)c1` [Example 136], the IC50 was 16 nM in assay [1], 490 nM in assay [2] and 121 nM in assay [3].
In the same order, the values of `O=C(NCc1cccc(O)c1)c1ccc(C(=O)N[C@@H](CNC(=O)c2cc(F)c(F)cc2F)C(=O)O)c(Cl)c1` [Example 145] are 24 nM, 1450 nM and 131 nM.
For `O=C(CCN1CCCCC1)NC[C@H](NC(=O)c1ccc(C(=O)NCc2cccc(O)c2)cc1Cl)C(=O)O` [Example 112], in that order: 18 nM, 375 nM and 161 nM.
As for `O=C(NCc1cccc(O)c1)c1ccc(C(=O)N[C@@H](CNC(=O)c2ccc(Cl)s2)C(=O)O)c(Cl)c1` [Example 157], the IC50 in assay [1] is 7.7 nM; in assay [2] it was 700 nM; in assay [3], 34 nM.
For `O=C(/C=C/c1cccs1)NC[C@H](NC(=O)c1ccc(C(=O)NCc2cccc(O)c2)cc1Cl)C(=O)O` [Example 116], in that order: 18 nM, 1300 nM and 86 nM.
With `Cc1noc(C)c1C(=O)NC[C@H](NC(=O)c1ccc(C(=O)NCc2cccc(O)c2)cc1Cl)C(=O)O` [Example 153], the figures for the IC50 in assay [1] and in assay [3] were 203 nM and 804 nM, respectively.
In the case of `O=C(NCc1cccc(O)c1)c1ccc(C(=O)N[C@@H](CNC(=O)C2CCCC2)C(=O)O)c(Cl)c1` [Example 101], the results for the IC50 in assay [1], in assay [2] and in assay [3] were 29 nM, 565 nM and 79 nM, respectively.
As for `O=C(NCc1cccc(O)c1)c1ccc(C(=O)N[C@@H](CNC(=O)c2ccc(Br)o2)C(=O)O)c(Cl)c1` [Example 150], the IC50 in assay [1] is 21 nM; in assay [2] it was 800 nM; in assay [3], 65 nM.
In the same order, the values of `O=C(NCc1cccc(O)c1)c1ccc(C(=O)N[C@@H](CNC(=O)C2(c3ccccc3)CCCC2)C(=O)O)c(Cl)c1` [Example 103] are 21 nM, 520 nM and 123 nM.
Turning to `O=C(NCc1cccc(O)c1)c1ccc(C(=O)N[C@@H](CNC(=O)c2sccc2Cl)C(=O)O)c(Cl)c1` [Example 156], the IC50 in assay [1] worked out at 12 nM; in assay [2] it was 465 nM; in assay [3], 64 nM.
For `O=C(NCc1cccc(O)c1)c1ccc(C(=O)N[C@@H](CNC(=O)c2ccccc2[N+](=O)[O-])C(=O)O)c(Cl)c1` [Example 140], in that order: 47 nM, 350 nM and 98 nM.
In the same order, the values of `CC1(C(=O)NC[C@H](NC(=O)c2ccc(C(=O)NCc3cccc(O)c3)cc2Cl)C(=O)O)CCCCC1` [Example 105] are 22 nM, 280 nM and 151 nM.
Regarding `O=C(NCc1cccc(O)c1)c1ccc(C(=O)N[C@@H](CNC(=O)c2cccc(O)c2)C(=O)O)c(Cl)c1` [Example 132], the IC50 in assay [1] stood at 7 nM; in assay [2], 82 nM; in assay [3], 3.3 nM.
In the same order, the values of `O=C(NCc1cccc(O)c1)c1ccc(C(=O)N[C@@H](CNC(=O)c2cccc([N+](=O)[O-])c2)C(=O)O)c(Cl)c1` [Example 141] are 9.6 nM, 450 nM and 47 nM.
As for `COc1cccc(C(=O)NC[C@H](NC(=O)c2ccc(C(=O)NCc3cccc(O)c3)cc2Cl)C(=O)O)c1` [Example 76, N-[2-chloro-4-[[[(3-hydroxyphenyl)methyl]amino]-carbonyl]benzoyl]-3-(3-methoxybenzoylamino)-L-alanine], the IC50 in assay [1] came to 6.8 nM; in assay [2], 310 nM; in assay [3], 43 nM.
For `O=C(NCc1cccc(O)c1)c1ccc(C(=O)N[C@@H](CNC(=O)c2ccsc2)C(=O)O)c(Cl)c1` [Example 161], in that order: 12 nM, 94 nM and 17 nM.
In the case of `Cc1ccsc1C(=O)NC[C@H](NC(=O)c1ccc(C(=O)NCc2cccc(O)c2)cc1Cl)C(=O)O` [Example 159], the IC50 came out at 13 nM in assay [1], 165 nM in assay [2] and 36 nM in assay [3].
Turning to `O=C(NCc1cccc(O)c1)c1cc(Cl)c(C(=O)N[C@@H](CNC(=O)c2ccc(Br)s2)C(=O)O)c(Cl)c1` [Example 354], the IC50 worked out at 203 nM in assay [2] and 12 nM in assay [3].
